Tests used:
Assay type in all cases: in vivo
[1] = tested on: Italian ryegrass; assay: Test Example 3: weedkilling efficacy through soil treatment; I: Italian ryegrass; conditions: for I: Italian ryegrass, weedkilling efficacy grade: soil treatment, treatment dosage 80 g/ha
How it was run: (§1)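 Crop and weed responses were judged three weeks after a uniform surface spray of the water-diluted emulsion at the given g/ha rate. Seeds sat beneath about 1.5 cm of sterilized diluvial soil, and boxes stood in a greenhouse at 25 to 30° C.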

[2] = tested on: black-grass; assay: Test Example 3: weedkilling efficacy through soil treatment; H: black-grass; conditions: for H: black-grass, weedkilling efficacy grade: soil treatment, treatment dosage 80 g/ha
How it was run: as §1

[3] = tested on: common wind-grass; assay: Test Example 3: weedkilling efficacy through soil treatment; J: common wind-grass; conditions: soil treatment, treatment dosage 80 g/ha
Excerpt: (§2) Weedkilling Efficacy Test Through Soil Treatment
(§3) Sterilized diluvial soil was introduced into 21 cm long, 13 cm wide, 7 cm deep plastic boxes, and seeds of crabgrass, green foxtail, barnyard grass, wild oat, black-grass, Italian ryegrass, common wind-grass, Indian mallow, redroot pigweed, fig-leafed goosefoot, chickweed, catchweed, birds-eye speedwell, corn, soybean, rice, wheat, beet and rapeseed were each spot-sown, and covered with about 1.5 cm of soil. Next, emulsions of compounds of the present invention prepared according to compounding example 2 were diluted with water to give the specified dosages, and applied uniformly onto the soil surface with a small sprayer. The plants were grown by placing the plastic boxes in a greenhouse at 25 to 30° C., and 3 weeks after the pesticide treatment the effect on each type of plant was investigated on the basis of the assessment criteria of test example 1.
(§4) A: barnyard grass, B: bulrush, C: oval-leafed pondweed, D: crabgrass, E: green foxtail, F: barnyard grass, G: wild oat, H: black-grass, I: Italian ryegrass, J: common wind-grass, K: Indian mallow, L: redroot pigweed, M: fig-leafed goosefoot, N: chickweed, O: catchweed, p: birds-eye speedwell, a: transplanted rice, b: directly sown rice, c: corn, d: soybean, e: wheat, f: beet, g: rapeseed
(§5) Further, pesticide dosage (g/ha) indicates the concentration regulated such that treatment was with only the stated number of grams (g), when calculated per hectare (ha).

[4] = tested on: rapeseed; assay: Test Example 3: soil treatment, effect on crop; g: rapeseed; conditions: soil treatment, treatment dosage 80 g/ha
Excerpt: as §2, §3, §4, §5

[5] = tested on: wheat; assay: Test Example 3: soil treatment, effect on crop; e: wheat; conditions: for e: wheat, effect on crop grade: soil treatment, treatment dosage 80 g/ha
How it was run: as §1

[6] = tested on: bulrush; assay: Test Example 1: weedkilling efficacy, preemergent weed treatment in the submerged state; B: bulrush; conditions: treatment dosage 252 g/ha
How it was run: (§6)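 Alluvial soil in Wagner pots flooded to 4 cm; barnyard grass, bulrush and oval-leafed pondweed seeds sown, then 2.5-leaf rice seedlings transplanted. Same day, emulsified compound diluted in water to set g/ha dosages and applied to water surface; greenhouse 25–30 °C, effect scored by criteria after 3 weeks.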

[7] = tested on: corn; assay: Test Example 4: foliar treatment, effect on crop; c: corn; conditions: treatment dosage 315 g/ha
Method: (§7) Testing of Weedkilling Efficacy by Foliar Treatment
(§8) Sterilized diluvial soil was introduced into 21 cm long, 13 cm wide, 7 cm deep plastic boxes, and seeds of crabgrass, green foxtail, barnyard grass, wild oat, black-grass, Italian ryegrass, common wind-grass, Indian mallow, redroot pigweed, fig-leafed goosefoot, chickweed, catchweed, birds-eye speedwell, corn, soybean, rice, wheat, beet and rapeseed were each spot-sown, and covered with about 1.5 cm of soil, then the plants were grown in a greenhouse at 25 to 30° C.
(§9) After they had grown for 14 days, emulsions of compounds of the present invention prepared according to compounding example 2 were diluted with water to give the specified dosages, and applied uniformly onto the stem and leaf parts with a small sprayer. 3 weeks after the pesticide treatment the effect on each type of plant was investigated on the basis of the assessment criteria of test example 1.
as §4, §5

[8] = tested on: Indian mallow; assay: Test Example 3: weedkilling efficacy through soil treatment; K: Indian mallow; conditions: treatment dosage 315 g/ha
How it was run: as §1

[9] = tested on: soybean; assay: Test Example 4: foliar treatment, effect on crop; d: soybean; conditions: treatment dosage 315 g/ha
Method: as §7, §8, §9, §4, §5

[10] = tested on: fig-leafed goosefoot; assay: Test Example 4: weedkilling efficacy by foliar treatment; M: fig-leafed goosefoot; conditions: treatment dosage 315 g/ha
Method: as §7, §8, §9, §4, §5

[11] = tested on: redroot pigweed; assay: Test Example 4: weedkilling efficacy by foliar treatment; L: redroot pigweed; conditions: treatment dosage 315 g/ha
Method: as §7, §8, §9, §4, §5

[12] = tested on: black-grass; assay: Test Example 4: weedkilling efficacy by foliar treatment; H: black-grass; conditions: treatment dosage 315 g/ha
Method: as §7, §8, §9, §4, §5

[13] = tested on: birds-eye speedwell; assay: Test Example 3: weedkilling efficacy through soil treatment; p: birds-eye speedwell; conditions: treatment dosage 315 g/ha
How it was run: as §1

[14] = tested on: crabgrass; assay: Test Example 3: weedkilling efficacy through soil treatment; D: crabgrass; conditions: treatment dosage 315 g/ha
How it was run: as §1

[15] = tested on: redroot pigweed; assay: Test Example 3: weedkilling efficacy through soil treatment; L: redroot pigweed; conditions: treatment dosage 315 g/ha
How it was run: as §1

[16] = tested on: catchweed; assay: Test Example 4: weedkilling efficacy by foliar treatment; O: catchweed; conditions: treatment dosage 315 g/ha
Method: as §7, §8, §9, §4, §5

[17] = tested on: barnyard grass; assay: Test Example 1: weedkilling efficacy, preemergent weed treatment in the submerged state; A: barnyard grass; conditions: treatment dosage 252 g/ha
How it was run: as §6

[18] = tested on: oval-leafed pondweed; assay: Test Example 1: weedkilling efficacy, preemergent weed treatment in the submerged state; C: oval-leafed pondweed; conditions: treatment dosage 252 g/ha
How it was run: as §6

[19] = tested on: Italian ryegrass; assay: Test Example 4: weedkilling efficacy by foliar treatment; I: Italian ryegrass; conditions: treatment dosage 315 g/ha
Method: as §7, §8, §9, §4, §5

[20] = tested on: corn; assay: Test Example 3: soil treatment, effect on crop; c: corn; conditions: treatment dosage 315 g/ha
How it was run: as §1

[21] = tested on: barnyard grass; assay: Test Example 2: weedkilling efficacy, growth period weed treatment in the submerged state; A: barnyard grass; conditions: treatment dosage 252 g/ha
How it was run: (§10)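 First, alluvial soil in pots is flooded to 4 cm and mixed seed is sown. Next, plants grow in a greenhouse at 25 to 30° C until the 1-2 leaf stage. Then diluted emulsion is applied onto the water surface at the given g/ha rate, and injury is assessed after 3 weeks.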

[22] = tested on: green foxtail; assay: Test Example 4: weedkilling efficacy by foliar treatment; E: green foxtail; conditions: treatment dosage 315 g/ha
Method: as §7, §8, §9, §4, §5

[23] = tested on: crabgrass; assay: Test Example 4: weedkilling efficacy by foliar treatment; D: crabgrass; conditions: treatment dosage 315 g/ha
Method: as §7, §8, §9, §4, §5

[24] = tested on: beet; assay: Test Example 3: soil treatment, effect on crop; f: beet; conditions: treatment dosage 315 g/ha
How it was run: as §1

[25] = tested on: chickweed; assay: Test Example 3: weedkilling efficacy through soil treatment; N: chickweed; conditions: treatment dosage 315 g/ha
How it was run: as §1

[26] = tested on: beet; assay: Test Example 4: foliar treatment, effect on crop; f: beet; conditions: treatment dosage 315 g/ha
Method: as §7, §8, §9, §4, §5

[27] = tested on: directly sown rice; assay: Test Example 4: foliar treatment, effect on crop; b: directly sown rice; conditions: treatment dosage 315 g/ha
Method: as §7, §8, §9, §4, §5

[28] = tested on: chickweed; assay: Test Example 4: weedkilling efficacy by foliar treatment; N: chickweed; conditions: treatment dosage 315 g/ha
Method: as §7, §8, §9, §4, §5

[29] = tested on: Indian mallow; assay: Test Example 4: weedkilling efficacy by foliar treatment; K: Indian mallow; conditions: treatment dosage 315 g/ha
Method: as §7, §8, §9, §4, §5

[30] = tested on: wheat; assay: Test Example 4: foliar treatment, effect on crop; e: wheat; conditions: treatment dosage 315 g/ha
Method: as §7, §8, §9, §4, §5

[31] = tested on: bulrush; assay: Test Example 2: weedkilling efficacy, growth period weed treatment in the submerged state; B: bulrush; conditions: treatment dosage 252 g/ha
How it was run: as §10

[32] = tested on: directly sown rice; assay: Test Example 3: soil treatment, effect on crop; b: directly sown rice; conditions: treatment dosage 315 g/ha
How it was run: as §1

[33] = tested on: green foxtail; assay: Test Example 3: weedkilling efficacy through soil treatment; E: green foxtail; conditions: treatment dosage 315 g/ha
How it was run: as §1

[34] = tested on: soybean; assay: Test Example 3: soil treatment, effect on crop; d: soybean; conditions: treatment dosage 315 g/ha
How it was run: as §1

[35] = tested on: transplanted rice; assay: Test Example 1: preemergent weed treatment in the submerged state, effect on crop; a: transplanted rice; conditions: treatment dosage 252 g/ha
How it was run: as §6

[36] = tested on: oval-leafed pondweed; assay: Test Example 2: weedkilling efficacy, growth period weed treatment in the submerged state; C: oval-leafed pondweed; conditions: treatment dosage 252 g/ha
How it was run: as §10

[37] = tested on: birds-eye speedwell; assay: Test Example 4: weedkilling efficacy by foliar treatment; p: birds-eye speedwell; conditions: treatment dosage 315 g/ha
Method: as §7, §8, §9, §4, §5

CC(C)(C(=O)Nc1cc(Br)ccn1)N1COCN(c2ccccc2)C1=O [A-2-08]
I: Italian ryegrass, weedkilling efficacy grade [1]: 5 (weed kill ratio 90% or more, (practically complete withering)) | H: black-grass, weedkilling efficacy grade [2]: 5 (weed kill ratio 90% or more, (practically complete withering)) | J: common wind-grass, weedkilling efficacy grade [3]: 5 (weed kill ratio 90% or more, (practically complete withering)) | g: rapeseed, effect on crop grade [4]: 0 (weed kill ratio 5% or less (practically no effect)) | e: wheat, effect on crop grade [5]: 0 (weed kill ratio 5% or less (practically no effect))

CC(C)(C(=O)Nc1cc(C(F)F)cc(Cl)n1)N1COCN(c2ccccc2)C1=O [A-2-27]
I: Italian ryegrass, weedkilling efficacy grade [1]: 5 (weed kill ratio 90% or more, (practically complete withering)) | H: black-grass, weedkilling efficacy grade [2]: 5 (weed kill ratio 90% or more, (practically complete withering)) | J: common wind-grass, weedkilling efficacy grade [3]: 5 (weed kill ratio 90% or more, (practically complete withering)) | g: rapeseed, effect on crop grade [4]: 2 (weed kill ratio 20% or more, less than 40%) | e: wheat, effect on crop grade [5]: 1 (weed kill ratio 5% or more, less than 20%)

COc1nsc(NC(=O)C(C)(C)N2COC(C)=C(c3ccccc3)C2=O)n1 [B-1-15]
B (bulrush) weedkilling efficacy grade [6]: 5 (weed kill ratio 90% or more, (practically complete withering)) | c (corn) effect on crop grade [7]: 4 (weed kill ratio 70% or more, less than 90%) | K (Indian mallow) weedkilling efficacy grade [8]: 4 (weed kill ratio 70% or more, less than 90%) | I (Italian ryegrass) weedkilling efficacy grade ([1]; treatment dosage 315 g/ha): 5 (weed kill ratio 90% or more, (practically complete withering)) | d (soybean) effect on crop grade [9]: 4 (weed kill ratio 70% or more, less than 90%) | M (fig-leafed goosefoot) weedkilling efficacy grade [10]: 3 (weed kill ratio 40% or more, less than 70%) | L (redroot pigweed) weedkilling efficacy grade [11]: 5 (weed kill ratio 90% or more, (practically complete withering)) | H (black-grass) weedkilling efficacy grade [12]: 5 (weed kill ratio 90% or more, (practically complete withering)) | P (birds-eye speedwell) weedkilling efficacy grade [13]: 5 (weed kill ratio 90% or more, (practically complete withering)) | D (crabgrass) weedkilling efficacy grade [14]: 5 (weed kill ratio 90% or more, (practically complete withering)) | L (redroot pigweed) weedkilling efficacy grade [15]: 5 (weed kill ratio 90% or more, (practically complete withering)) | O (catchweed) weedkilling efficacy grade [16]: 4 (weed kill ratio 70% or more, less than 90%) | A (barnyard grass) weedkilling efficacy grade [17]: 5 (weed kill ratio 90% or more, (practically complete withering)) | H (black-grass) weedkilling efficacy grade ([2]; treatment dosage 315 g/ha): 5 (weed kill ratio 90% or more, (practically complete withering)) | C (oval-leafed pondweed) weedkilling efficacy grade [18]: 5 (weed kill ratio 90% or more, (practically complete withering)) | I (Italian ryegrass) weedkilling efficacy grade [19]: 4 (weed kill ratio 70% or more, less than 90%) | c (corn) effect on crop grade [20]: 0 (weed kill ratio 5% or less (practically no effect)) | A (barnyard grass) weedkilling efficacy grade [21]: 4 (weed kill ratio 70% or more, less than 90%) | E (green foxtail) weedkilling efficacy grade [22]: 5 (weed kill ratio 90% or more, (practically complete withering)) | D (crabgrass) weedkilling efficacy grade [23]: 5 (weed kill ratio 90% or more, (practically complete withering)) | f (beet) effect on crop grade [24]: 4 (weed kill ratio 70% or more, less than 90%) | N (chickweed) weedkilling efficacy grade [25]: 5 (weed kill ratio 90% or more, (practically complete withering)) | f (beet) effect on crop grade [26]: 4 (weed kill ratio 70% or more, less than 90%) | b (directly sown rice) effect on crop grade [27]: 4 (weed kill ratio 70% or more, less than 90%) | N (chickweed) weedkilling efficacy grade [28]: 4 (weed kill ratio 70% or more, less than 90%) | K (Indian mallow) weedkilling efficacy grade [29]: 5 (weed kill ratio 90% or more, (practically complete withering)) | e (wheat) effect on crop grade [30]: 3 (weed kill ratio 40% or more, less than 70%) | B (bulrush) weedkilling efficacy grade [31]: 5 (weed kill ratio 90% or more, (practically complete withering)) | b (directly sown rice) effect on crop grade [32]: 5 (weed kill ratio 90% or more, (practically complete withering)) | E (green foxtail) weedkilling efficacy grade [33]: 5 (weed kill ratio 90% or more, (practically complete withering)) | d (soybean) effect on crop grade [34]: 0 (weed kill ratio 5% or less (practically no effect)) | a (transplanted rice) effect on crop grade [35]: 0 (weed kill ratio 5% or less (practically no effect)) | e (wheat) effect on crop grade ([5]; treatment dosage 315 g/ha): 4 (weed kill ratio 70% or more, less than 90%) | C (oval-leafed pondweed) weedkilling efficacy grade [36]: 5 (weed kill ratio 90% or more, (practically complete withering)) | P (birds-eye speedwell) weedkilling efficacy grade [37]: 4 (weed kill ratio 70% or more, less than 90%)

From patent publication US9738634B2, “Heterocyclic amide compound and herbicide” (SYNGENTA PARTICIPATIONS AG, priority 2013, dated 2017)
